Laboratory results as given in paper PMC3076432 (PLoS ONE, 2011).
Like-named read-outs stand apart in the source and are kept apart here. Ends that are not written are not given here. Peptide text beside a SMILES is read from it.

Legend:
F. graminearum hyphae [1] = format: cell-based, Fusarium graminearum
F. graminearum hyphae [2] = format: cell-based, Fusarium graminearum; remark: listed apart in the source
Aspergillus flavus = format: cell-based
[3] = F. graminearum PH-1, SFM without calcium
[4] = PH-1, all concentrations tested
[5] = PH-1 conidia, microscopic observation after overnight (16 hours) incubation

Compound: RTCESQSHKFKGPCASDHNCASVCQTERFSGGRCRGFRRRCFCTTHC (also: bicyclic or more (positions not given here)) [MtDef4]
- IC100: amount of protein required to inhibit F. graminearum conidial germination completely (F. graminearum PH-1): 1.5 to 2.5 µM
- concentration giving complete inhibition of conidial germination (IC100) (F. graminearum PH-1): 1.5 µM
- fungal growth inhibition at 1.5 µM (F. graminearum PH-1; 1.5 µM): 100%
- IC50 (F. graminearum PH-1; read-out: IC50: amount of protein required for inhibiting 50% growth of F. graminearum): 0.75 to 1 µM
- SYTOX Green uptake (in words) (F. graminearum hyphae [1]): increased in a concentration dependant manner
- time to start of SG uptake after addition of defensin (F. graminearum hyphae [1]): ≤ 5 min
- maximum SYTOX Green fluorescence at 6 µM, 5 hours (F. graminearum hyphae [1]; 6 µM, 5 hours): 702±10 units
- hyphal morphology compared with untreated control hyphae (F. graminearum hyphae [2]): no difference
- growth inhibition of A. flavus at 48 µM (Aspergillus flavus): approximately 75%

Compound: C[C@H](NC(=O)[C@H](CS)NC(=O)[C@@H]1CCCN1C(=O)CN)C(=O)N[C@@H](CO)C(=O)N[C@@H](CC(=O)O)C(=O)N[C@@H](Cc1c[nH]cn1)C(=O)N[C@@H](CC(N)=O)C(=O)N[C@@H](CS)C(=O)O [ALP4] (H-GPCASDHNC-OH; N-terminus and C-terminus assumed)
- antifungal activity at 48 µM (in words) (F. graminearum PH-1; PH-1): no antifungal activity
- IC100: amount of protein required to inhibit F. graminearum conidial germination completely (F. graminearum PH-1; [3]): >48 µM
- antifungal activity (in words) (F. graminearum PH-1; [4]): totally inactive

Compound: N=C(N)NCCC[C@H](NC(=O)[C@H](CCCNC(=N)N)NC(=O)[C@H](CCCNC(=N)N)NC(=O)[C@H](Cc1ccccc1)NC(=O)CNC(=O)[C@@H](N)CCCNC(=N)N)C(=O)O [GMA4-L] (H-RGFRRR-OH)
- fungal growth inhibition at 12 µM (F. graminearum PH-1; PH-1, 16 h, 12 µM): 100%
- IC50 (F. graminearum PH-1; PH-1, 36 h): 4 µM
- fungal growth inhibition at 6 µM (F. graminearum PH-1; PH-1, 36 h, 6 µM): 91±7%

Compound: N=C(N)NCCC[C@H](NC(=O)CN)C(=O)N[C@@H](CS)C(=O)N[C@@H](CCCNC(=N)N)C(=O)NCC(=O)N[C@@H](Cc1ccccc1)C(=O)N[C@@H](CCCNC(=N)N)C(=O)N[C@@H](CCCNC(=N)N)C(=O)N[C@@H](CCCNC(=N)N)C(=O)N[C@@H](CS)C(=O)O [GMA4] (H-GRCRGFRRRC-OH; N-terminus and C-terminus assumed)
- concentration giving complete inhibition of conidial germination (IC100) (F. graminearum PH-1; PH-1 conidia): 12 µM
- lowest concentration at which antifungal activity / growth inhibition was evident (F. graminearum PH-1; [5]): 6 µM

Compound: C[C@@H](O)[C@H](NC(=O)[C@H](CS)NC(=O)[C@H](Cc1c[nH]c2ccccc12)NC(=O)[C@H](CS)NC(=O)[C@H](CCCNC(=N)N)NC(=O)[C@H](Cc1ccccc1)NC(=O)[C@H](CC(=O)O)NC(=O)[C@H](CC(=O)O)NC(=O)[C@H](CCCNC(=N)N)NC(=O)[C@H](CS)NC(=O)[C@H](CCCNC(=N)N)NC(=O)CN)C(=O)N[C@@H](CCCCN)C(=O)N[C@@H](CCCNC(=N)N)C(=O)N[C@@H](CS)C(=O)O [GMA1-C] (H-GRCRDDFRCWCTKRC-OH; N-terminus and C-terminus assumed)
- IC100: amount of protein required to inhibit F. graminearum conidial germination completely (F. graminearum PH-1; [3]): 24 µM
- hyperbranching of fungal hyphae (F. graminearum PH-1; PH-1, microscopy after 16 hours): did not cause hyperbranching
- concentration giving complete inhibition of conidial germination (IC100) (F. graminearum PH-1; PH-1 conidia): 24 µM
- lowest concentration at which antifungal activity / growth inhibition was evident (F. graminearum PH-1; [5]): 6 µM
- SG uptake at 24 µM relative to that induced by GMA4-C (F. graminearum hyphae [1]; 24 µM): twice

Compound: C[C@@H](O)[C@H](NC(=O)[C@H](CS)NC(=O)[C@H](Cc1ccccc1)NC(=O)[C@H](CS)NC(=O)[C@H](CCCNC(=N)N)NC(=O)[C@H](CCCNC(=N)N)NC(=O)[C@H](CCCNC(=N)N)NC(=O)[C@H](Cc1ccccc1)NC(=O)CNC(=O)[C@H](CCCNC(=N)N)NC(=O)[C@H](CS)NC(=O)[C@H](CCCNC(=N)N)NC(=O)CN)C(=O)N[C@H](C(=O)N[C@@H](Cc1c[nH]cn1)C(=O)N[C@@H](CS)C(=O)O)[C@@H](C)O [GMA4-C] (H-GRCRGFRRRCFCTTHC-OH; N-terminus and C-terminus assumed)
- IC100: amount of protein required to inhibit F. graminearum conidial germination completely (F. graminearum PH-1): 6 µM
- concentration giving complete inhibition of conidial germination (IC100) (F. graminearum PH-1): 6 µM
- lowest concentration at which antifungal activity / growth inhibition was evident (F. graminearum PH-1): 1.5 µM
- fungal growth inhibition at 3 µM (F. graminearum PH-1; PH-1, 16 h, 3 µM): 70±9%
- IC50 (F. graminearum PH-1; PH-1, 36 h): 3 µM

Compound: NCC(=O)N1CCC[C@H]1C(=O)N[C@@H](CS)C(=O)N[C@@H](Cc1ccccc1)C(=O)N[C@@H](CO)C(=O)NCC(=O)N[C@@H](CS)C(=O)O [ALP1] (H-GPCFSGC-OH; N-terminus and C-terminus assumed)
- antifungal activity at 48 µM (in words) (F. graminearum PH-1; PH-1): no antifungal activity
- IC100: amount of protein required to inhibit F. graminearum conidial germination completely (F. graminearum PH-1; [3]): >48 µM
- antifungal activity (in words) (F. graminearum PH-1; [4]): totally inactive

Compound: C[C@H](NC(=O)CNC(=O)[C@@H](N)CCCNC(=N)N)C(=O)N[C@@H](CCCNC(=N)N)C(=O)N[C@@H](CCCNC(=N)N)C(=O)N[C@@H](CCCNC(=N)N)C(=O)O [GMA4-L1] (H-RGARRR-OH; N-terminus and C-terminus assumed)
- IC100: amount of protein required to inhibit F. graminearum conidial germination completely (F. graminearum PH-1): >96 µM
- growth inhibition at 24 µM, 16 hours (in words) (F. graminearum PH-1): mild growth inhibition
- growth inhibition at 96 µM (F. graminearum PH-1; PH-1, 16 h): 30–40%
- IC50 (F. graminearum PH-1; PH-1, 36 h): > 96 µM
- SYTOX Green uptake at 24 µM (F. graminearum hyphae [1]; 24 µM): > 100 fluorescence units

Compound: C[C@H](NC(=O)[C@H](Cc1ccccc1)NC(=O)CNC(=O)[C@@H](N)CCCNC(=N)N)C(=O)N[C@@H](CCCNC(=N)N)C(=O)N[C@@H](CCCNC(=N)N)C(=O)O [GMA4-L2] (H-RGFARR-OH; N-terminus and C-terminus assumed)
- IC100: amount of protein required to inhibit F. graminearum conidial germination completely (F. graminearum PH-1): >96 µM
- growth inhibition at 24 µM, 16 hours (in words) (F. graminearum PH-1): mild growth inhibition
- growth inhibition at 96 µM (F. graminearum PH-1; PH-1, 16 h): 30–40%
- IC50 (F. graminearum PH-1; PH-1, 36 h): > 96 µM
- SYTOX Green uptake (in words) (F. graminearum hyphae [1]): failed to induce any uptake

Compound: N=C(N)NCCC[C@H](NC(=O)[C@H](Cc1ccccc1)NC(=O)[C@H](CC(=O)O)NC(=O)[C@H](CC(=O)O)NC(=O)[C@@H](N)CCCNC(=N)N)C(=O)O [GMA1-L] (H-RDDFR-OH; N-terminus and C-terminus assumed)
- IC100: amount of protein required to inhibit F. graminearum conidial germination completely (F. graminearum PH-1): >96 µM
- antifungal activity (in words) (F. graminearum PH-1): no antifungal activity
- antifungal activity at 96 µM (in words) (F. graminearum PH-1): inactive
- IC50 (F. graminearum PH-1; PH-1, 36 h): > 96 µM
- SYTOX Green uptake (in words) (F. graminearum hyphae [1]): failed to induce any uptake

Compound: N=C(N)NCCC[C@H](NC(=O)CN)C(=O)N[C@@H](CS)C(=O)N[C@@H](CCCNC(=N)N)C(=O)N[C@@H](CC(=O)O)C(=O)N[C@@H](CC(=O)O)C(=O)N[C@@H](Cc1ccccc1)C(=O)N[C@@H](CCCNC(=N)N)C(=O)N[C@@H](CS)C(=O)O [GMA1] (H-GRCRDDFRC-OH; N-terminus and C-terminus assumed)
- antifungal activity at 48 µM (in words) (F. graminearum PH-1; PH-1): no antifungal activity
- antifungal activity at 96 µM (in words) (F. graminearum PH-1; PH-1): failed to show any antifungal activity
- IC100: amount of protein required to inhibit F. graminearum conidial germination completely (F. graminearum PH-1; [3]): >192 µM
- antifungal activity (in words) (F. graminearum PH-1; [4]): inactive
